Several values for one entry are separate records, joined by “and”; a condition that tells them apart may be missing. Equal values may be shown once.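 Step 1: Grow cells in 96-well plates. Step 2: Expose to compound for 48 hours at 5 concentrations. Step 3: Interpolate endpoints linearly; if unreached, use highest concentration. GI50 is the concentration that inhibits growth by half. TGI: total growth inhibition.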
Tests used:
Experiment in all cases: growth of human tumour cells (NCI), 48 h
[1] = test system: MCF7 breast
[2] = test system: OVCAR-3 ovarian
[3] = test system: MALME-3M melanoma
[4] = test system: SF-268 CNS
[5] = test system: HCT-116 colon
[6] = test system: CCRF-CEM leukemia
[7] = test system: IGROV1 ovarian
[8] = test system: MDA-MB-435
[9] = test system: HOP-92 NSCLC
[10] = test system: TK-10 renal
[11] = test system: A498 renal
[12] = test system: HOP-62 NSCLC
[13] = test system: M14 melanoma
[14] = test system: HT29 colon
[15] = test system: MOLT-4 leukemia
[16] = test system: OVCAR-5 ovarian
[17] = test system: T-47D breast
[18] = test system: NCI-H460 lung
[19] = test system: KM12 colon
[20] = test system: U251 CNS
[21] = test system: DU-145 prostate
[22] = test system: RPMI-8226 leukemia
[23] = test system: HL-60(TB) leukemia
[24] = test system: LOX IMVI melanoma
[25] = test system: SK-MEL-28 melanoma
[26] = test system: HS 578T breast
[27] = test system: SK-MEL-2 melanoma
[28] = test system: SF-539 CNS
[29] = test system: EKVX NSCLC
[30] = test system: UO-31 renal
[31] = test system: NCI-H522 lung
[32] = test system: NCI/ADR-RES ovarian
[33] = test system: SR leukemia
[34] = test system: K-562 leukemia
[35] = test system: 786-0 renal
[36] = test system: SN12C renal
[37] = test system: PC-3 prostate
[38] = test system: HCT-15 colon
[39] = test system: OVCAR-4 ovarian
[40] = test system: SW-620 colon
[41] = test system: CAKI-1 renal
[42] = test system: SNB-19 CNS
[43] = test system: UACC-62 melanoma
[44] = test system: SF-295 CNS
[45] = test system: SK-MEL-5 melanoma
[46] = test system: HCC-2998 colon
[47] = test system: NCI-H226 lung
[48] = test system: NCI-H23 lung
[49] = test system: COLO 205 colon
[50] = test system: BT-549 breast
[51] = test system: SK-OV-3 ovarian
[52] = test system: A549 NSCLC
[53] = test system: UACC-257 melanoma
[54] = test system: OVCAR-8 ovarian
[55] = test system: MDA-MB-231 breast

O=C(O)C[C@H](O)C[C@H](O)/C=C/c1c(C2CC2)nc2ccccc2c1-c1ccc(F)cc1
GI50 [1]: 54.7 µM and > 21.9 µM | TGI [1]: > 100 µM | GI50 [2]: 16.8 µM and 12.1 µM | TGI [2]: > 100 µM | GI50 [3]: > 100 µM | TGI [3]: > 100 µM | GI50 [4]: 0.659 µM and 0.381 µM | TGI [4]: > 100 µM | GI50 [5]: 5.8 µM and 1.25 µM | TGI [5]: > 100 µM | GI50 [6]: 58.4 µM and 25.8 µM | TGI [6]: > 100 µM | GI50 [7]: 5.25 µM and 3.6 µM | TGI [7]: 43.5 µM and > 100 µM | GI50 [8]: 14.6 µM and 6.04 µM | TGI [8]: > 100 µM | TGI [9]: 0.227 µM and 0.0622 µM | TGI [10]: > 100 µM | GI50 [11]: 0.202 µM and 0.036 µM | TGI [11]: 0.908 µM and 0.226 µM | GI50 [12]: 15 µM and 6.22 µM | TGI [12]: > 100 µM | GI50 [13]: 5.34 µM and 4.38 µM | TGI [13]: > 100 µM | GI50 [14]: 62.2 µM and 8.24 µM | TGI [14]: > 100 µM | GI50 [15]: > 100 µM and 54.5 µM | TGI [15]: > 100 µM | GI50 [16]: 52.6 µM and 7.32 µM | TGI [16]: > 100 µM | TGI [17]: > 100 µM | GI50 [18]: 21.2 µM and 4.92 µM | TGI [18]: > 100 µM | GI50 [19]: 34.2 µM and 24.8 µM | TGI [19]: > 100 µM | GI50 [20]: 1.62 µM and 0.302 µM | TGI [20]: > 100 µM | GI50 [21]: > 100 µM and 31 µM | TGI [21]: > 100 µM | GI50 [22]: 25 µM and 10.4 µM | TGI [22]: > 100 µM | GI50 [23]: 4.55 µM and 25.6 µM | TGI [23]: > 100 µM | GI50 [24]: 1.33 µM | TGI [24]: 13.9 µM | GI50 [25]: 27.4 µM and 7.7 µM | TGI [25]: > 100 µM | GI50 [26]: 6.45 µM and 2.1 µM | TGI [26]: > 100 µM | GI50 [27]: 4.06 µM | TGI [27]: > 100 µM | GI50 [28]: 43.7 µM and 5.46 µM | TGI [28]: > 100 µM | GI50 [29]: 23.1 µM and 5.16 µM | TGI [29]: > 100 µM | GI50 [30]: 16 µM and 3.48 µM | TGI [30]: > 100 µM | GI50 [31]: 1.38 µM and 0.633 µM | GI50 [32]: 2.82 µM and 0.86 µM | TGI [32]: > 100 µM | GI50 [33]: 2.59 µM and 0.615 µM | TGI [33]: > 100 µM | GI50 [34]: 6.4 µM and 7.73 µM | TGI [34]: > 100 µM | GI50 [35]: 21.6 µM and 2.86 µM | TGI [35]: > 100 µM | GI50 [36]: 2.4 µM and 0.668 µM | TGI [36]: > 100 µM | GI50 [37]: 0.508 µM and 0.423 µM | TGI [37]: > 100 µM | GI50 [38]: 6.16 µM and 0.616 µM | TGI [38]: > 100 µM | GI50 [39]: 22.8 µM and 8.04 µM | TGI [39]: > 100 µM | GI50 [40]: 18.6 µM and 4.92 µM | TGI [40]: > 100 µM | GI50 [41]: 2.66 µM and 1.25 µM | TGI [41]: 12.5 µM and 5.31 µM | TGI [42]: > 100 µM | GI50 [43]: 2.3 µM and 0.45 µM | TGI [43]: > 100 µM | GI50 [44]: 2.1 µM and 0.526 µM | TGI [44]: > 100 µM | GI50 [45]: 12.8 µM and 1.32 µM | TGI [45]: 31.1 µM and 3.56 µM | GI50 [46]: 42 µM and 49.9 µM | TGI [46]: > 100 µM | GI50 [47]: 11.7 µM and 2.22 µM | TGI [47]: 51.6 µM and 8.01 µM | GI50 [48]: 8.75 µM and 3.31 µM | TGI [48]: > 100 µM | GI50 [49]: 43.3 µM and 8.98 µM | TGI [49]: > 100 µM | GI50 [50]: 18.1 µM and 4.11 µM | TGI [50]: > 100 µM | GI50 [51]: 26.1 µM and 6.6 µM | TGI [51]: > 100 µM | GI50 [52]: > 100 µM and 18.7 µM | TGI [52]: > 100 µM | GI50 [53]: > 100 µM | TGI [53]: > 100 µM | GI50 [54]: 7.63 µM and 2.17 µM | TGI [54]: > 100 µM | GI50 [55]: 0.287 µM and 0.0564 µM

— PubChem BioAssay (NCI)
